Results as given in ChEMBL document CHEMBL1201862, “PubChem BioAssay data set” (2004).
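In this assay, cells in 96-well plates receive the compound at five concentrations for 48 hours. Endpoints are linearly interpolated between the surrounding concentrations. Abbreviation: GI50, concentration required for 50% inhibition of growth.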 The source made the active and inactive calls. Rule as the data show it: active = GI50 up to about 1.1 µM and inactive = higher.

Assays:
Test in all cases: inhibition of tumour cell growth, NCI panel, 48 h
HCT-15 = tested on: HCT-15
HCT-116 = tested on: HCT-116
HCC 2998 = tested on: HCC 2998
KM12 = tested on: KM12
SF-539 = tested on: SF-539
OVCAR-4 = tested on: OVCAR-4
U-251 = tested on: U-251
NCI-H460 = tested on: NCI-H460
CAKI-1 = tested on: CAKI-1
OVCAR-8 = tested on: OVCAR-8
SNB-19 = tested on: SNB-19
K562 = tested on: K562
HOP-92 = tested on: HOP-92
RPMI-8226 = tested on: RPMI-8226
A549 = tested on: A549
UO-31 = tested on: UO-31

Measured: GI50

Cc1c[nH]c2c1C13CC1CN(C(=O)c1cc4cc(NC(=O)c5cc6ccccc6o5)ccc4[nH]1)C3=CC2=O (stereo not given)
active: HCT-116 < 0.001 µM | HCC 2998 < 0.001 µM | KM12 < 0.001 µM | SF-539 < 0.001 µM | OVCAR-4 < 0.001 µM | U-251 < 0.001 µM | NCI-H460 < 0.001 µM | CAKI-1 < 0.001 µM | OVCAR-8 < 0.001 µM | SNB-19 < 0.001 µM | K562 < 0.001 µM
< 0.001 µM: HCT-15

Oc1ccc2occ3c2c1CCC3
inactive: HOP-92 29.2 µM | HCT-116 > 100 µM | HCC 2998 > 100 µM | SF-539 > 100 µM | RPMI-8226 98.4 µM | OVCAR-4 > 100 µM | U-251 > 100 µM | NCI-H460 > 100 µM | A549 > 100 µM | CAKI-1 > 100 µM | OVCAR-8 > 100 µM | SNB-19 > 100 µM | K562 65.8 µM
> 100 µM: HCT-15

NC(=O)c1c([N+](=O)[O-])cc(C(F)(F)F)cc1[N+](=O)[O-]
inactive: HOP-92 > 100 µM | HCT-116 39 µM | HCC 2998 38.4 µM | KM12 44 µM | SF-539 45.7 µM | RPMI-8226 > 100 µM | UO-31 > 100 µM | OVCAR-4 68.2 µM | U-251 > 100 µM | NCI-H460 47.4 µM | A549 99.5 µM | CAKI-1 > 100 µM | OVCAR-8 > 100 µM | SNB-19 > 100 µM | K562 86.1 µM

Cc1ccc(N2C(=O)C3C=CC(n4[nH]c(=O)n(Cc5ccccc5)c4=O)CC3C2=O)cc1 (stereo not given)
inactive: HOP-92 > 100 µM | HCT-116 > 100 µM | HCC 2998 > 100 µM | KM12 > 100 µM | SF-539 > 100 µM | RPMI-8226 > 100 µM | UO-31 > 100 µM | U-251 > 100 µM | NCI-H460 > 100 µM | A549 > 100 µM | CAKI-1 > 100 µM | OVCAR-8 > 100 µM | SNB-19 > 100 µM | K562 > 100 µM
> 100 µM: HCT-15

C=CCN1/C(=C2\SC(=S)N(c3ccc(C)cc3)C2=O)Sc2c1ncn(C)c2=O
inactive: HOP-92 > 100 µM | HCT-116 > 100 µM | HCC 2998 47.6 µM | KM12 > 100 µM | SF-539 90.8 µM | RPMI-8226 > 100 µM | UO-31 > 100 µM | OVCAR-4 94.2 µM | U-251 > 100 µM | NCI-H460 > 100 µM | A549 > 100 µM | CAKI-1 > 100 µM | OVCAR-8 95.1 µM | SNB-19 > 100 µM | K562 > 100 µM
> 100 µM: HCT-15

C/C(=N/N(C=O)C[n+]1ccccc1)C(CN(CC(C)C)CC(C)C)C(=O)Nc1ccc(C)cc1C (stereo not given)
inactive: HOP-92 75.3 µM | HCT-116 > 100 µM | HCC 2998 > 100 µM | KM12 84.1 µM | SF-539 > 100 µM | RPMI-8226 > 100 µM | UO-31 25.8 µM | OVCAR-4 > 100 µM | NCI-H460 > 100 µM | A549 > 100 µM | CAKI-1 55.1 µM | OVCAR-8 > 100 µM | SNB-19 67.9 µM | K562 > 100 µM

O=C1C(c2ccccc2)=C(c2ccccc2)C(c2ccc(Sc3ccc(C4=C(c5ccccc5)C(=O)C(c5ccccc5)=C4c4ccccc4)cc3)cc2)=C1c1ccccc1
inactive: HOP-92 > 100 µM | HCT-116 > 100 µM | KM12 > 100 µM | SF-539 72.9 µM | RPMI-8226 > 100 µM | UO-31 > 100 µM | OVCAR-4 > 100 µM | U-251 48.6 µM | NCI-H460 > 100 µM | A549 > 100 µM | CAKI-1 > 100 µM | OVCAR-8 > 100 µM | SNB-19 > 100 µM | K562 > 100 µM
> 100 µM: HCT-15

O=c1[nH]c2ccccc2cc1C(Cl)=C(Cl)Cl
inactive: HOP-92 > 100 µM | HCT-116 > 100 µM | HCC 2998 > 100 µM | KM12 > 100 µM | SF-539 > 100 µM | RPMI-8226 > 100 µM | UO-31 > 100 µM | OVCAR-4 > 100 µM | U-251 > 100 µM | NCI-H460 > 100 µM | A549 > 100 µM | CAKI-1 > 100 µM | OVCAR-8 > 100 µM | SNB-19 > 100 µM | K562 > 100 µM

Cc1nc2ccccc2c(=O)n1/N=C(\N=N\c1cc(Cl)ccc1Cl)c1ccc(N(C)C)cc1
> 100 µM: HCT-15
inactive: HCT-116 32.3 µM | SF-539 33 µM | RPMI-8226 26.2 µM | UO-31 22.9 µM | U-251 38.1 µM | NCI-H460 45.7 µM | A549 > 100 µM | CAKI-1 34 µM | OVCAR-8 40.9 µM | SNB-19 33.3 µM | K562 57.1 µM

CCOC(=O)C1=C(Nc2ccc(Cl)c(Cl)c2)OC/C1=N\NS(=O)(=O)c1ccc(C)cc1
inactive: HCT-116 22.8 µM | HCC 2998 33.5 µM | KM12 39.5 µM | SF-539 37.5 µM | RPMI-8226 21.6 µM | UO-31 25.1 µM | OVCAR-4 63.5 µM | U-251 66.5 µM | NCI-H460 34.3 µM | A549 52.2 µM | CAKI-1 44.2 µM | OVCAR-8 75.2 µM | SNB-19 59 µM | K562 21.3 µM

CCOC(=O)Cc1nc(/C(C#N)=C/c2ccco2)[nH]c(=O)c1C#N
inactive: HOP-92 > 100 µM | HCT-116 > 100 µM | HCC 2998 > 100 µM | KM12 > 100 µM | SF-539 > 100 µM | RPMI-8226 > 100 µM | UO-31 > 100 µM | OVCAR-4 > 100 µM | U-251 > 100 µM | NCI-H460 > 100 µM | A549 > 100 µM | CAKI-1 > 100 µM | OVCAR-8 > 100 µM | SNB-19 > 100 µM | K562 > 100 µM
> 100 µM: HCT-15

Clc1ccc2c(Cl)ncnc2c1I
> 100 µM: HCT-15
inactive: HCT-116 76.4 µM | HCC 2998 > 100 µM | KM12 > 100 µM | RPMI-8226 33.7 µM | UO-31 67.8 µM | OVCAR-4 > 100 µM | U-251 > 100 µM | NCI-H460 > 100 µM | A549 > 100 µM | CAKI-1 64 µM | OVCAR-8 > 100 µM | SNB-19 > 100 µM | K562 30.5 µM

Cc1ccc(C)c(NC(=O)C(=O)Nn2c(S)nc3ccccc3c2=O)c1
inactive: HOP-92 > 100 µM | HCT-116 > 100 µM | HCC 2998 > 100 µM | KM12 > 100 µM | SF-539 > 100 µM | RPMI-8226 > 100 µM | UO-31 > 100 µM | OVCAR-4 > 100 µM | U-251 > 100 µM | NCI-H460 > 100 µM | A549 > 100 µM | CAKI-1 > 100 µM | OVCAR-8 > 100 µM | SNB-19 > 100 µM | K562 > 100 µM
> 100 µM: HCT-15

N/C(=N\O)N/N=C/c1ccc(O)c(O)c1
inactive: HOP-92 > 100 µM | HCT-116 > 100 µM | HCC 2998 > 100 µM | KM12 > 100 µM | SF-539 > 100 µM | RPMI-8226 > 100 µM | UO-31 > 100 µM | OVCAR-4 > 100 µM | U-251 > 100 µM | NCI-H460 > 100 µM | A549 > 100 µM | CAKI-1 > 100 µM | OVCAR-8 > 100 µM | SNB-19 > 100 µM | K562 44.9 µM
> 100 µM: HCT-15

O=C1c2cccc([N+](=O)[O-])c2C(=O)c2nccnc21
1.47 µM: HCT-15
inactive: HOP-92 7.1 µM | HCT-116 1.63 µM | HCC 2998 2.62 µM | SF-539 1.47 µM | RPMI-8226 3.05 µM | UO-31 1.27 µM | OVCAR-4 1.42 µM | U-251 1.4 µM | NCI-H460 1.46 µM | A549 1.66 µM | CAKI-1 4.86 µM | OVCAR-8 2.25 µM | SNB-19 1.69 µM | K562 1.91 µM

CCOc1ccccc1/N=N/c1c(-c2ccccc2)nn(C(=O)CC(=O)Nc2cccc(Cl)c2)c1-c1ccccc1
inactive: HOP-92 50.7 µM | HCT-116 35.1 µM | HCC 2998 26.2 µM | KM12 31.8 µM | SF-539 62.1 µM | RPMI-8226 46.9 µM | UO-31 19.2 µM | OVCAR-4 23.1 µM | U-251 39.5 µM | NCI-H460 44.6 µM | A549 54 µM | CAKI-1 43.1 µM | OVCAR-8 63.5 µM | SNB-19 68.9 µM | K562 32.2 µM

CCCCCCCCCCCCCCCC/C(C(=O)OC)=C(/O)C(=O)OCC
> 100 µM: HCT-15
inactive: HOP-92 38.9 µM | HCT-116 > 100 µM | HCC 2998 > 100 µM | KM12 > 100 µM | SF-539 > 100 µM | RPMI-8226 > 100 µM | UO-31 94 µM | OVCAR-4 > 100 µM | U-251 > 100 µM | NCI-H460 > 100 µM | A549 > 100 µM | CAKI-1 > 100 µM | OVCAR-8 > 100 µM | SNB-19 > 100 µM | K562 > 100 µM

O=C(O)c1ccc(C2C(=O)N[C@@H]3CCC[C@H]23)cc1 (stereo not given in full)
inactive: HCT-116 > 100 µM | HCC 2998 > 100 µM | KM12 > 100 µM | SF-539 > 100 µM | RPMI-8226 > 100 µM | UO-31 > 100 µM | OVCAR-4 > 100 µM | U-251 > 100 µM | NCI-H460 > 100 µM | A549 > 100 µM | CAKI-1 > 100 µM | OVCAR-8 > 100 µM | SNB-19 > 100 µM | K562 > 100 µM
> 100 µM: HCT-15
